These results are taken from ChEMBL document CHEMBL1125035, “Synthesis and biological activity of novel vitamin D analogues: 24,24-difluoro-25-hydroxy-26,27-dimethylvitamin D3 and 24,24-difluoro-1 alpha,25-dihydroxy-26,27-dimethylvitamin D3” (1990).

Structures are written as SMILES.

Assay [1] addresses T1, Vitamin D-binding protein (Rattus norvegicus) (UniProt P04276).
T1 sequence (whole entry): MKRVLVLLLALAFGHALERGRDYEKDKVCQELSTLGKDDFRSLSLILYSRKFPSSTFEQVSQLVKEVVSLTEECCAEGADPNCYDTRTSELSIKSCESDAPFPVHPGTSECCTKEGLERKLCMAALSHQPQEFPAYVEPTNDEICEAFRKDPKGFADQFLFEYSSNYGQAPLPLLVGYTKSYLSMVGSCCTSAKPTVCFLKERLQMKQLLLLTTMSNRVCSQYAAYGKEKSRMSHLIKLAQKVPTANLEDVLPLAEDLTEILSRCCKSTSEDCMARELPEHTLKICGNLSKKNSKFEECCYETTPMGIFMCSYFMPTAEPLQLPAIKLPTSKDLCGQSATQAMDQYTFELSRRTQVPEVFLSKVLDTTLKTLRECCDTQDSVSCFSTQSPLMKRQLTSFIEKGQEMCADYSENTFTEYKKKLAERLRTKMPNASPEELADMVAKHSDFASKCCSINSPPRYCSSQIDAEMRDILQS
The assay is described as follows: Displacement of [3H]25-(OH)-D3 from rat plasma Vitamin D binding protein. In kind it is cell-free.

The species named for the next assay is Gallus gallus. The assay can be described thus: Bind to chick intestinal Vitamin D3 receptor for 1,25-(OH)2-D3.
A short description of assay [2]: Relative potency against calcium binding protein induction in duodenal organ culture at a concentration of 0.01 nM compared to 1,25-(OH)2-D3 in Male Albino rats. In kind it is functional.
The species named for assay [3] is Rattus norvegicus. The assay is described as follows: Calcium binding protein induction in duodenal organ culture at a concentration of 1 nM in Male Albino rats. In kind it is functional.
The species named for assay [4] is Rattus norvegicus. The assay is described as follows: Calcium binding protein induction in duodenal organ culture at a concentration of 0.1 nM in Male Albino rats. In kind it is functional.
For assay [5], the species on record is Rattus norvegicus. The assay can be described thus: Calcium binding protein induction in duodenal organ culture at a concentration of 10 nM in Male Albino rats. In kind it is functional.
For assay [6], the species on record is Rattus norvegicus. The assay is described as follows: Calcium binding protein induction in duodenal organ culture at a concentration of 0.01 nM in Male Albino rats. In kind it is functional.

Turning to `C=C1CC[C@H](O)C/C1=C/C=C1\CCC[C@]2(C)[C@@H]([C@H](C)CC[C@@H](O)C(C)(C)O)CC[C@@H]12`, the B50 was determined as 3.22 nM in assay [1] and 804 nM in the assay listed under Gallus gallus.

`C=C1/C(=C/C=C2\CCC[C@]3(C)[C@@H]([C@H](C)CCC(F)(F)C(O)(CC)CC)CC[C@@H]23)C[C@@H](O)C[C@@H]1O`: the “Relative potency” value in assay [2] is listed as 325. The “Ca2+ binding protein” value in the assay filed under Rattus norvegicus [3] was 49.5 ug (100mg of duodenum)-1; in the assay filed under Rattus norvegicus [4], 21.7 ug (100mg of duodenum)-1; in the assay listed under Rattus norvegicus [5], 94 ug (100mg of duodenum)-1; in the assay listed under Rattus norvegicus [6], 11.9 ug (100mg of duodenum)-1.

As for `C=C1CC[C@H](O)C/C1=C/C=C1\CCC[C@]2(C)[C@@H]([C@H](C)CCCC(C)C)CC[C@@H]12`, the B50 in assay [1] worked out at 338 nM.

Regarding `C=C1CC[C@H](O)C/C1=C/C=C1\CCC[C@]2(C)[C@@H]([C@H](C)CCC[C@@](C)(O)CO)CC[C@@H]12`, the values for the B50 (in assay [1]; in the assay filed under Gallus gallus) were 4.03 nM and 4300 nM, respectively.

On to `C=C1/C(=C/C=C2\CCC[C@]3(C)[C@@H]([C@H](C)CCCC(C)C)CC[C@@H]23)C[C@@H](O)C[C@@H]1O`, for which the results for the B50 (in assay [1]; in the assay filed under Gallus gallus) were 848 nM and 139 nM, respectively.
